Experimental data reported in patent US12077503B2, “Substituted cyclic amides and their use as herbicides” (FMC CORPORATION, priority 2015, dated 2024).

Tests used:
Type in all cases: in vivo
[1] = tested on: Kochia (Kochia scoparia); test: Test A preemergence; conditions: Bassia scoparia, pre-emergence, 240 h
Outline: (§1)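 Greenhouse, ~10 d after spray; visual injury vs untreated controls, 0 = no effect, 100 = complete control. Preemergence: directed soil spray over planted seeds. Postemergence: plants 2–10 cm, 1–2 leaf stage. Loam/sand blend. Compound in non-phytotoxic solvent with surfactant.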

[2] = tested on: barnyardgrass (Echinochloa crus-galli); test: Test A preemergence; conditions: Echinochloa crus-galli, pre-emergence, 240 h
Outline: as §1

[3] = tested on: giant foxtail (Setaria faberii); test: Test A preemergence; conditions: Setaria faberi, pre-emergence, 240 h
Outline: as §1

[4] = tested on: pigweed (Amaranthus retroflexus); test: Test A preemergence; conditions: Amaranthus retroflexus, pre-emergence, 240 h
[5] = tested on: ragweed (common ragweed, Ambrosia elatior); test: Test A preemergence; conditions: Ambrosia artemisiifolia, pre-emergence, 240 h
Outline: as §1

[6] = tested on: ryegrass, Italian (Italian ryegrass, Lolium multiflorum); test: Test A preemergence; conditions: Lolium multiflorum, pre-emergence, 240 h
Outline: as §1

[7] = tested on: Galium (catchweed bedstraw, Galium aparine); test: Test A postemergence; conditions: Galium, post-emergence, 240 h, 125 g ai/ha, Postemergence; visual injury after approximately 10 d; 0 to 100 scale where 0 is no effect and 100 is complete control; read-out: Plant response rating, Galium
Outline: as §1

[8] = tested on: Kochia (Kochia scoparia); test: Test A postemergence; conditions: Bassia scoparia, post-emergence, 240 h, 125 g ai/ha, Postemergence; visual injury after approximately 10 d; 0 to 100 scale where 0 is no effect and 100 is complete control; read-out: Plant response rating, Kochia
Outline: as §1

[9] = tested on: barnyardgrass (Echinochloa crus-galli); test: Test A postemergence; conditions: Echinochloa crus-galli, post-emergence, 240 h, 125 g ai/ha, Postemergence; visual injury after approximately 10 d; 0 to 100 scale where 0 is no effect and 100 is complete control; read-out: Plant response rating, Barnyardgrass
Outline: as §1

[10] = tested on: blackgrass (Alopecurus myosuroides); test: Test A postemergence; conditions: Alopecurus myosuroides, post-emergence, 240 h, 125 g ai/ha, Postemergence; visual injury after approximately 10 d; 0 to 100 scale where 0 is no effect and 100 is complete control; read-out: Plant response rating, Blackgrass
Outline: as §1

[11] = tested on: corn (Zea mays); test: Test A postemergence; conditions: Zea mays, post-emergence, 240 h, 125 g ai/ha, Postemergence; visual injury after approximately 10 d; 0 to 100 scale where 0 is no effect and 100 is complete control
Outline: as §1

[12] = tested on: giant foxtail (Setaria faberii); test: Test A postemergence; conditions: Setaria faberi, post-emergence, 240 h, 125 g ai/ha, Postemergence; visual injury after approximately 10 d; 0 to 100 scale where 0 is no effect and 100 is complete control; read-out: Plant response rating, Foxtail, Giant
Outline: as §1

[13] = tested on: pigweed (Amaranthus retroflexus); test: Test A postemergence; conditions: Amaranthus retroflexus, post-emergence, 240 h, 125 g ai/ha, Postemergence; visual injury after approximately 10 d; 0 to 100 scale where 0 is no effect and 100 is complete control; read-out: Plant response rating, Pigweed
Outline: as §1

[14] = tested on: ragweed (common ragweed, Ambrosia elatior); test: Test A postemergence; conditions: Ambrosia artemisiifolia, post-emergence, 240 h, 125 g ai/ha, Postemergence; visual injury after approximately 10 d; 0 to 100 scale where 0 is no effect and 100 is complete control; read-out: Plant response rating, Ragweed
Outline: as §1

[15] = tested on: ryegrass, Italian (Italian ryegrass, Lolium multiflorum); test: Test A postemergence; conditions: Lolium multiflorum, post-emergence, 240 h, 125 g ai/ha, Postemergence; visual injury after approximately 10 d; 0 to 100 scale where 0 is no effect and 100 is complete control; read-out: Plant response rating, Ryegrass, Italian
Outline: as §1

[16] = tested on: wheat (Triticum aestivum); test: Test A postemergence; conditions: Triticum aestivum, post-emergence, 240 h, 125 g ai/ha, Postemergence; visual injury after approximately 10 d; 0 to 100 scale where 0 is no effect and 100 is complete control; read-out: Plant response rating, Wheat
Outline: as §1

[17] = tested on: barnyardgrass (Echinochloa crus-galli); test: Test B flooded paddy test; conditions: Echinochloa crus-galli, Flood, 250 g ai/ha; scale of 0 to 100 where 0 is no effect and 100 is complete control; read-out: Barnyardgrass plant response rating
Outline: (§2)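 Evaluation by eye, against controls, occurred 13–15 d post-treatment in a greenhouse, using a 0 (no effect) to 100 (complete control) scale. Application was into the paddy water, 3 cm deep over the soil, on 2-leaf plants.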

[18] = tested on: ducksalad (Heteranthera limosa); test: Test B flooded paddy test; conditions: Heteranthera limosa, Flood, 250 g ai/ha; scale of 0 to 100 where 0 is no effect and 100 is complete control; read-out: Ducksalad plant response rating
Outline: as §2

[19] = tested on: rice (Oryra sativa); test: Test B flooded paddy test; conditions: Oryza sativa, Flood, 250 g ai/ha; scale of 0 to 100 where 0 is no effect and 100 is complete control; read-out: Rice plant response rating
Outline: as §2

[20] = tested on: sedge, umbrella (small-flower umbrella sedge, Cyperus difformis); test: Test B flooded paddy test; conditions: Cyperus difformis, Flood, 250 g ai/ha; scale of 0 to 100 where 0 is no effect and 100 is complete control; read-out: Sedge, Umbrella plant response rating
Outline: as §2

O=C(Nc1ccccc1F)[C@H]1C(=S)NC[C@@H]1c1ccc(Cl)cc1 (racemic) [Compound 947]
0%: pest or weed control at 125 g/ha ([1]; 125 g ai/ha, Preemergence, visual injury rating after approximately 10 d, read-out: Kochia plant response rating (0 to 100 scale, 0 is no effect, 100 is complete control)) | pest or weed control at 125 g/ha ([4]; 125 g ai/ha, Preemergence, visual injury rating after approximately 10 d, read-out: Pigweed plant response rating (0 to 100 scale, 0 is no effect, 100 is complete control)) | pest or weed control at 500 g/ha ([4]; 500 g ai/ha, preemergence, visual injury rating about 10 d after treatment, 0 to 100 scale (0 no effect, 100 complete control), read-out: Pigweed plant response rating) | pest or weed control at 125 g/ha ([5]; 125 g ai/ha, Preemergence, visual injury rating after approximately 10 d, read-out: Ragweed plant response rating (0 to 100 scale, 0 is no effect, 100 is complete control)) | pest or weed control at 500 g/ha ([5]; 500 g ai/ha, preemergence, visual injury rating about 10 d after treatment, 0 to 100 scale (0 no effect, 100 complete control), read-out: Ragweed plant response rating) | pest or weed control at 125 g/ha ([6]; 125 g ai/ha, Preemergence, visual injury rating after approximately 10 d, read-out: Ryegrass, Italian plant response rating (0 to 100 scale, 0 is no effect, 100 is complete control)) | pest or weed control at 500 g/ha ([6]; 500 g ai/ha, preemergence, visual injury rating about 10 d after treatment, 0 to 100 scale (0 no effect, 100 complete control), read-out: Ryegrass, Italian plant response rating) | pest or weed control at 125 g/ha [7] | pest or weed control at 125 g/ha [8] | pest or weed control at 125 g/ha [10] | Corn plant response rating (crop injury, 0 = no effect, 100 = complete kill) at 125 g/ha [11] | pest or weed control at 125 g/ha [13] | pest or weed control at 125 g/ha [14] | pest or weed control at 125 g/ha [15] | plant injury at 125 g/ha [16] | pest or weed control at 250 g/ha [17] | pest or weed control at 250 g/ha [19] | pest or weed control at 250 g/ha [20]
80%: pest or weed control at 500 g/ha ([3]; 500 g ai/ha, preemergence, visual injury rating about 10 d after treatment, 0 to 100 scale (0 no effect, 100 complete control), read-out: Foxtail, Giant plant response rating)
20%: pest or weed control at 125 g/ha [9]
30%: pest or weed control at 125 g/ha ([2]; 125 g ai/ha, Preemergence, visual injury rating after approximately 10 d, read-out: Barnyardgrass plant response rating (0 to 100 scale, 0 is no effect, 100 is complete control)) | pest or weed control at 125 g/ha [12]
60%: pest or weed control at 500 g/ha ([2]; 500 g ai/ha, preemergence, visual injury rating about 10 d after treatment, 0 to 100 scale (0 no effect, 100 complete control), read-out: Barnyardgrass plant response rating)
65%: pest or weed control at 250 g/ha [18]
40%: pest or weed control at 500 g/ha ([1]; 500 g ai/ha, preemergence, visual injury rating about 10 d after treatment, 0 to 100 scale (0 no effect, 100 complete control), read-out: Kochia plant response rating)
50%: pest or weed control at 125 g/ha ([3]; 125 g ai/ha, Preemergence, visual injury rating after approximately 10 d, read-out: Foxtail, Giant plant response rating (0 to 100 scale, 0 is no effect, 100 is complete control))
